Test results reported in ChEMBL document CHEMBL1201862, “PubChem BioAssay data set” (2004).
Active and inactive are the calls of the source.

Experiments:
[1] = Luminescence Cell-Based Dose Retest to Confirm Inhibitors of Cancer Stem Cells. [Related pubchem assays (depositor defined):AID2717, AID2721]; format: functional, Homo sapiens; conditions: Homo sapiens
Vero = assay: cells; format: functional; conditions: Chlorocebus sabaeus
[2] = blockers of HIV-1 envelope-mediated cell-cell fusion – cherry-pick, dose response (AID 652057); format: functional, cell-based
[3] = biological target: Induced myeloid leukemia cell differentiation protein Mcl-1 (Homo sapiens, UniProt Q07820); format: functional
[4] = HEK-293T cell viability reduction – luminescence, B-cell screen hits, cytotoxicity control for BCR NF-kB inhibitor project, dose response (AID 489021); format: functional, cell-based;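 note: HEK-293T cells carrying an NF-kB luciferase reporter; cells exposed to compound for about 14 hours before viability readout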
[5] = microbe, parasite or virus in culture; format: functional; conditions: Mycobacterium tuberculosis
[6] = biological target: Voltage-dependent T-type calcium channel subunit alpha-1H (Homo sapiens, UniProt O95180); format: functional;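 note: channel activity triggered by adding a high calcium stimulation buffer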
[7] = biological target: T1, Replicative DNA helicase DnaB (Mycobacterium tuberculosis, UniProt P9WMR3); assay: DnaB intein splicing inhibitors, dose response, biochemical, cell-free fluorescence (AID 449749); format: functional
T1 sequence (P9WMR3 whole entry): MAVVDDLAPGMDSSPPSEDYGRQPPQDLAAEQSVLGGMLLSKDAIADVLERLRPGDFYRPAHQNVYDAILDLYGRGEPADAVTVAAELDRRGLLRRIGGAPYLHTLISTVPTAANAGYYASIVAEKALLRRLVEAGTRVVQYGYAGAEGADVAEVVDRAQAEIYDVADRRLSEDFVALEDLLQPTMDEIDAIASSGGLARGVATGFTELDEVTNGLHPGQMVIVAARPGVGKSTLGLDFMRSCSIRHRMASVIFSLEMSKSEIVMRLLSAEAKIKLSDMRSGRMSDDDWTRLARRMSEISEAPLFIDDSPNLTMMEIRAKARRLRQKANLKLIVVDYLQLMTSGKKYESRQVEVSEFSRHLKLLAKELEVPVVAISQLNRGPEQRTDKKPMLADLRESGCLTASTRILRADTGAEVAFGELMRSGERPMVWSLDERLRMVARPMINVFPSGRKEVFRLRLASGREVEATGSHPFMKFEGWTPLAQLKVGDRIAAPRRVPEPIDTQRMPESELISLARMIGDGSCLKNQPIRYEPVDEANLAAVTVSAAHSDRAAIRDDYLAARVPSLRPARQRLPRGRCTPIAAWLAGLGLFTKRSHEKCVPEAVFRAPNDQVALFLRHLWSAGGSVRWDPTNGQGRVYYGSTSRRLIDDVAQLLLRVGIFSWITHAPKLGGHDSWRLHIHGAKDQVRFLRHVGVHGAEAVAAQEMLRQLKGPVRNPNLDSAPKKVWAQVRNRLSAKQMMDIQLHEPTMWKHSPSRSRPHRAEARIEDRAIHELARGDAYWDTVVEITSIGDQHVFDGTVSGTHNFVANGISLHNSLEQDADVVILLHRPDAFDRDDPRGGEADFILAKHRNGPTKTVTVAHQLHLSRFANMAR

Protein RecA = biological target: T2, Protein RecA (Mycobacterium tuberculosis, UniProt P9WHJ3); assay: Fluorescence Cell-Free Homogeneous Dose Retest to Identify Inhibitors of RecA-Intein Splicing Activity. [Related pubchem assays (depositor defined):AID2097, AID2223, AID489010, AID492950]; format: functional
T2 sequence (P9WHJ3 whole entry): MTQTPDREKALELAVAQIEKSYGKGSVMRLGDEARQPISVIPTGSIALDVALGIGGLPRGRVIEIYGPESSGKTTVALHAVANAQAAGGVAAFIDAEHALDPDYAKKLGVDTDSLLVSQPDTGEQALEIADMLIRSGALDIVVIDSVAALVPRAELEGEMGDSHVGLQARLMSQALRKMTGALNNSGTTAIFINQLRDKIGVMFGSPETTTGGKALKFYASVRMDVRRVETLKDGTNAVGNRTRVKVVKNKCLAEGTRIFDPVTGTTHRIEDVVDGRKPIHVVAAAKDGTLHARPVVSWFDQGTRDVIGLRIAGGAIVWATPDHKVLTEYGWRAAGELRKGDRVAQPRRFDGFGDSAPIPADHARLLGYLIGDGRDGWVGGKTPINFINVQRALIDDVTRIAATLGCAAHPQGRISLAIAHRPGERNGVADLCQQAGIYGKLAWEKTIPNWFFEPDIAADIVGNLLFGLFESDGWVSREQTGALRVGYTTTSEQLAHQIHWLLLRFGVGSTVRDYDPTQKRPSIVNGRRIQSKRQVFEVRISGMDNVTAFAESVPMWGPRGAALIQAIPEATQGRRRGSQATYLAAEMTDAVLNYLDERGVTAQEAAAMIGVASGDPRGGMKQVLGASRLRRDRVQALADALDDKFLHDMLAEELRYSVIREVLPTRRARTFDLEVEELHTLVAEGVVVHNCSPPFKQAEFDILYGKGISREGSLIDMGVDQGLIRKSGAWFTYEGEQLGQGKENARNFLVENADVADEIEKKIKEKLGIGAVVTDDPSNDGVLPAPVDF

[8] = biological target: T3, DNA repair protein RAD52 homolog (Homo sapiens, UniProt P43351); format: functional, biochemical
T3 sequence (P43351 whole entry): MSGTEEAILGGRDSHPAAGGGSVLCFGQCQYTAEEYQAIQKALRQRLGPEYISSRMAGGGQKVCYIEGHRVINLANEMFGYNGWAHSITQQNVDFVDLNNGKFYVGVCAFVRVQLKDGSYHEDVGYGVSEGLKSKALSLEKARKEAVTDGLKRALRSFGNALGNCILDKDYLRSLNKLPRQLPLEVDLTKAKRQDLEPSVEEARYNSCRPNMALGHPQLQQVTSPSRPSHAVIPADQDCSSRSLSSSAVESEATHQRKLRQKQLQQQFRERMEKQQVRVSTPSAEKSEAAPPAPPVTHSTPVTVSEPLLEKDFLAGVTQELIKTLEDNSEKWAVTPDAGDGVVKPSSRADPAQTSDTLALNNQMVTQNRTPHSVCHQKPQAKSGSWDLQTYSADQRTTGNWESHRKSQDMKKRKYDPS

[9] = biological target: T4, Ubiquitin-conjugating enzyme E2 N (Homo sapiens, UniProt P61088); format: functional;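 note: Dose-response confirmation in a TR-FRET assay detecting UBC13-driven polyubiquitin chain formation, inhibition measured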
T4 sequence (P61088 whole entry): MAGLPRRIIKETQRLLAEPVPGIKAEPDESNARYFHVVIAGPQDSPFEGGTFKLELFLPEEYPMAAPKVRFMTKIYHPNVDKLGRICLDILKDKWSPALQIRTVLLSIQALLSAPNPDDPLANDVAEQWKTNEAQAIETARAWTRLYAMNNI

[10] = Trypanosoma cruzi growth suppression in host cells – NIH3T3 host cells, beta-gal luminescence, confirmation (AID 2044); format: functional, cell-based;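 note: intracellular parasites grown in NIH/3T3 mouse fibroblasts as host cells; luminescent beta-galactosidase reporter signal from transgenic T. cruzi replicating inside host cells; inhibitors lower the luminescence signal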
[11] = NIH3T3 cell viability loss – ATP luminescence, mouse fibroblasts, counter-screen, dose response (AID 2010); format: functional, cell-based; conditions: NIH3T3;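 note: cells exposed to compound for about 90 hours before reading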
INS1 = assay: INS-1E survival protection against cytokine death – cell-based, luminescence, retest, dose response (AID 449756); format: functional; conditions: Rattus norvegicus;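 note: cell death triggered by IL-1 beta plus TNF-alpha plus IFN-gamma mixture; protective hits raise ATP signal compared with cytokine alone wells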
[12] = biological target: T5, Rac GTPase-activating protein 1 (Homo sapiens, UniProt Q9H0H5); assay: blockers of MgcRacGAP-driven Rac1 GTP hydrolysis – biochemical, ADP Hunter fluorescence, primary and confirmatory, confirmation (AID 624330); format: functional
T5 sequence (Q9H0H5 whole entry): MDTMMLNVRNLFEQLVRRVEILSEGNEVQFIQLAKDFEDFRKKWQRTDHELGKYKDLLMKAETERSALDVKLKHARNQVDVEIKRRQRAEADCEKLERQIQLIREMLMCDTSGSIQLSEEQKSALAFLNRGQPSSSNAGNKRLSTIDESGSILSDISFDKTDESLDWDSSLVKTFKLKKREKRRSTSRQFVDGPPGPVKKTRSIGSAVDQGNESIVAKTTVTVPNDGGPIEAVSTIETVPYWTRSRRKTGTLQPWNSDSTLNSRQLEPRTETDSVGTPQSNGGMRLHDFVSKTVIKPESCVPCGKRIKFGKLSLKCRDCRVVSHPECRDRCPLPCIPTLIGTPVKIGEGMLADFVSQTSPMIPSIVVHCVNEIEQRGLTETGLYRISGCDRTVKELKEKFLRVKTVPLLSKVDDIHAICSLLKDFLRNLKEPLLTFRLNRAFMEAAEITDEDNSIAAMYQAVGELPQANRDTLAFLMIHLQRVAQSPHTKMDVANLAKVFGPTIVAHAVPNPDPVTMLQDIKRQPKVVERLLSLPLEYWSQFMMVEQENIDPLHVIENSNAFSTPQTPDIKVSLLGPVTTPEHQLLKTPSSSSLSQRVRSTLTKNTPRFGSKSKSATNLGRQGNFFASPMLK

[13] = luciferase reporter signal suppression in cells – H4 neuroglioma cells, luminescence, dose response (AID 1990); format: functional, cell-based
[14] = Luminescence Cell-Based Dose Response HTS to Identify Inhibitors of 5'UTR Stem-Loop Driven Prion Protein mRNA Translation in H4 Neuroglioblastoma Cells. [Related pubchem assays: 1827 (Project Summary), 1813 (Primary HTS)]; format: functional
[15] = alpha-synuclein stem-loop luciferase translation blockers – H4 neuroglioma cells, luminescence, confirmation (AID 1988); format: functional, cell-based
[16] = NIH-3T3 fibroblast cytotoxicity, dose response, cytotoxicity control, cell-based, fluorescence, Alamar Blue, secondary assay (AID 2327); format: functional;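 note: NIH-3T3 mouse fibroblasts cultured with fluconazole at 8 µg/mL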
HEK293 [17] = assay: inhibition of NOD1-driven NF-kB reporter – cell-based, luminescence, uHTS, primary screen (AID 1578); format: functional; conditions: Homo sapiens
HEK293 [18] = assay: cells; format: functional, cell-based; conditions: Homo sapiens
[19] = fluconazole-exposed Candida albicans growth modulators – fluorescence, retest, confirmation (AID 2467); format: functional, cell-based
HEK293 [20] = assay: cells; format: functional, cell-based; conditions: Homo sapiens; remark: listed apart in the source
HEK293 [21] = assay: NOD2 signaling inhibitors in MDP-stimulated cells, cell-based, uHTS, luminescence (AID 2001); format: functional; conditions: Homo sapiens

Voltage-dependent T-type calcium channel subunit alpha-1H, sequence (O95180 whole entry): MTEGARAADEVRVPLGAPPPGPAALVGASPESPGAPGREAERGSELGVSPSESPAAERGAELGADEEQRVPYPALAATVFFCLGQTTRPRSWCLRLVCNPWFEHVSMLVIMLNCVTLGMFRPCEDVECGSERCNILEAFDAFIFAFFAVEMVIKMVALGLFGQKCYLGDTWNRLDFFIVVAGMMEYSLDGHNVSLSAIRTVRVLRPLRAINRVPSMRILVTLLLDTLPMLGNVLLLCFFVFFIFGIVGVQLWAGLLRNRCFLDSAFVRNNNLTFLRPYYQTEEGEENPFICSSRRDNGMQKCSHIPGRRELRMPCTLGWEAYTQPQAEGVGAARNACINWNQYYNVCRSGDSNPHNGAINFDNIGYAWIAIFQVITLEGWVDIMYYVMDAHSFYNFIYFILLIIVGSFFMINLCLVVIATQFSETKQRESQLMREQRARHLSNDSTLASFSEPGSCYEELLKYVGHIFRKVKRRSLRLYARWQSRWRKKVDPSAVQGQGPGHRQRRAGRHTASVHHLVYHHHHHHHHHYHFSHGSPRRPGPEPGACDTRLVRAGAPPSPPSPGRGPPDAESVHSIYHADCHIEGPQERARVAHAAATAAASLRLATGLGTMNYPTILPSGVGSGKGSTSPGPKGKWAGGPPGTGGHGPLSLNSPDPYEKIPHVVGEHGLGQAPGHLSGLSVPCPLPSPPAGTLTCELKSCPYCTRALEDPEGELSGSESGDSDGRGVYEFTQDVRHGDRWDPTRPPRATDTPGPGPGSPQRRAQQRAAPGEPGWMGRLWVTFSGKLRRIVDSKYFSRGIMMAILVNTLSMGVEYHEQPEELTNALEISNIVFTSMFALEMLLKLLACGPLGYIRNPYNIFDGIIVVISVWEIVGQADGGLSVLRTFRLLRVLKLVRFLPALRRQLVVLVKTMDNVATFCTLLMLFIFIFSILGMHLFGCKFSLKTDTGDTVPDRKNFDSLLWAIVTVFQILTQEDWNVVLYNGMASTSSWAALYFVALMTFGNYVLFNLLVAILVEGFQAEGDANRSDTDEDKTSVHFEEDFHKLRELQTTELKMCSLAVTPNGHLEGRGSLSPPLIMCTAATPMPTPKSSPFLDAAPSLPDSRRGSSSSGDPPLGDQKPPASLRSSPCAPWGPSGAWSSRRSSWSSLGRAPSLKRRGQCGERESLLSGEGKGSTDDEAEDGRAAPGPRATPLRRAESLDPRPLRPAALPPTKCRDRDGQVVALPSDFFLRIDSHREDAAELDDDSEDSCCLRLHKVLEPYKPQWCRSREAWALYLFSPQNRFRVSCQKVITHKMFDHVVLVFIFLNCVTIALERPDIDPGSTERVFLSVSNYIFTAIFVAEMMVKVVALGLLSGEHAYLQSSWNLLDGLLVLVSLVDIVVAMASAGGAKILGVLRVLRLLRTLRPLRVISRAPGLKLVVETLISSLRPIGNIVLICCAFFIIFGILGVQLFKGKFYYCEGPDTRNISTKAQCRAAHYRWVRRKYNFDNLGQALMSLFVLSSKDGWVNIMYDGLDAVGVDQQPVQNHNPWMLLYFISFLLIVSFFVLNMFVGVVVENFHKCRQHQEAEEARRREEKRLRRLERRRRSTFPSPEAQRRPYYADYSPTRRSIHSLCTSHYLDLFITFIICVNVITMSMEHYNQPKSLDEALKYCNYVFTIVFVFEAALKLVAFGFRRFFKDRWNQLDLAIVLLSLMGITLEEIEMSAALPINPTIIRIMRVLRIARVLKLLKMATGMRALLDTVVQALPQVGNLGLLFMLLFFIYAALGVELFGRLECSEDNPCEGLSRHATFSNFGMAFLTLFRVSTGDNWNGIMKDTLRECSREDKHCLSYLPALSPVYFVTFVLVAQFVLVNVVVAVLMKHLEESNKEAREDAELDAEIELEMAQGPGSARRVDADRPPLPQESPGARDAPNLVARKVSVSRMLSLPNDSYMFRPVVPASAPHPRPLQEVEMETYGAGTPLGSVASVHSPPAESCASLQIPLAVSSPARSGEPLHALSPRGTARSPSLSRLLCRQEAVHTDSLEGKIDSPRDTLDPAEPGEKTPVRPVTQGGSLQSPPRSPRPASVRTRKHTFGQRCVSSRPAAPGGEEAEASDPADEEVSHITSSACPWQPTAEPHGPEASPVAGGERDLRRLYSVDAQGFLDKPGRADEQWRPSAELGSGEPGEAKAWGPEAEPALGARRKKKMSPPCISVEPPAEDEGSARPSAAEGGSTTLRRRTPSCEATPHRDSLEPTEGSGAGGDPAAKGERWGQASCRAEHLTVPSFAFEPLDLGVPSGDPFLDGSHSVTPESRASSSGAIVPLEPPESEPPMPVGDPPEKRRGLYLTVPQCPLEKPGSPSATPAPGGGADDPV
Induced myeloid leukemia cell differentiation protein Mcl-1, sequence (Q07820 whole entry): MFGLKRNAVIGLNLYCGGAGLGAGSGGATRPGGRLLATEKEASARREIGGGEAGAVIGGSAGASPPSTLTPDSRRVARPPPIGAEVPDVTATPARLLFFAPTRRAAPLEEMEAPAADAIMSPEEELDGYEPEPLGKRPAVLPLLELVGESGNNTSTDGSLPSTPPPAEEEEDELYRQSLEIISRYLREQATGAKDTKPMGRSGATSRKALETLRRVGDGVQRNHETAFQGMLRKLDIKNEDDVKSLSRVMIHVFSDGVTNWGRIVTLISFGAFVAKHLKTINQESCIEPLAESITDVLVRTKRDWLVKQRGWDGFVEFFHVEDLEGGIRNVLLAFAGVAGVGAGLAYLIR

SMILES: CC(C)C[C@H](NC(=O)c1[nH]cnc1C(=O)NC(c1ccccc1)c1ccccc1)C(=O)OC(C)(C)C
- AC50 [1]: 3.44 µM (active)
- CC50 (Vero): 19.3 µM (active)

SMILES: CCC(=O)N(C)C[C@H]1Oc2cc(/C=C/c3ccccc3)ccc2S(=O)(=O)N([C@@H](C)CO)C[C@H]1C
- AC50 [2]: 20.7 µM (active)

SMILES: O=[N+]([O-])c1ccc2c(c1)=[N+]([O-])C1(CCCCC1)[N+]=2[O-]
- IC50 [3]: 4.85 µM (active)

SMILES: COc1ccc(C(=O)Nc2ccccc2C(=O)NCc2ccco2)cc1OC
- IC50 [4]: > 80 µM (inactive)

SMILES: C/C(=N\NC(=O)c1nnn(-c2nonc2N)c1CN(C)c1ccccc1)c1ccccn1
- CC50 [5]: 2.43 µM (active)

SMILES: CSc1ccc(C(=O)/C=C/c2ccc(N)cc2)cc1
- CC50 (Vero): 18.7 µM (active)

SMILES: COc1ccccc1OCC(=O)N(Cc1nc(-c2ccccc2)no1)C1CCCCC1
- EC50 [6]: 5.55 µM (active)

SMILES: CCN(CCN(C)C)C(=O)c1ccc2c(c1NCCO)C(=O)c1ccccc1C2=O
- AC50 [7]: 0.0471 µM (active)
- EC50 (Protein RecA): < 0.018 µM (active)
- AC50 [8]: 6.06 µM (active)

SMILES: CC1Cc2ccccc2N1S(=O)(=O)c1cnc(Cl)c(Br)c1 (configuration not stated)
- IC50 [4]: 69.3 µM (inactive)

SMILES: FC(F)(F)c1cc(CO[C@@H]2CCCN[C@@H]2c2ccccc2)cc(C(F)(F)F)c1
- CC50 [5]: 24.2 µM (active)
- IC50 [9]: > 20 µM (inactive)

SMILES: O=C(Nc1nc2ccccc2s1)C1CC(=O)N(c2ccccc2)C1 (configuration not stated)
- EC50 [6]: 8.11 µM (active)

SMILES: CCN(CC)CCOCCOc1ccc(Cl)c2ccccc12
- CC50 (Vero): > 25 µM (active)

SMILES: Cc1ccc(-c2nnn(CC(=O)N3CCCc4ccccc43)n2)cc1
- EC50 [6]: 3.43 µM (active)

SMILES: Cc1ccc(-c2cn3c([n+]2-c2ccccc2)SCC3)cc1
- EC50 [10]: 0.282 µM (active)
- EC50 [11]: > 60 µM (not active)
- IC50 [4]: > 80 µM (inactive)
- AC50 (INS1): 3.11 µM (active)

SMILES: C=CCOc1ccc(C2C(C#N)=C(N)N(Nc3ccccc3)C3=C2C(=O)CC(C)(C)C3)cc1OC (configuration not stated)
- CC50 [5]: 35.8 µM (active)

SMILES: CCN(CC)CCNc1ncnc2c1sc1nc(N3CCOCC3)c3c(c12)CCCC3
- IC50 [9]: > 20 µM (inactive)
- AC50 [8]: 4.88 µM (active)

SMILES: COc1ccccc1/C=C1\SC(=S)N(CCC(=O)Nc2nnc(C)s2)C1=O
- IC50 [4]: > 80 µM (inactive)

SMILES: COC(=O)/C=C\C(C#N)(C#N)N=Cc1ccc(OC)cc1
- CC50 (Vero): > 25 µM (active)

SMILES: COc1ccc(NC(=O)c2nnn(Cc3cccc(F)c3)c2N)c(OC)c1
- IC50 [4]: > 80 µM (inactive)

SMILES: CN(C)c1ccc(C(c2nnnn2CCOC(=O)Nc2ccc(Cl)cc2)N2CCOCC2)cc1 (configuration not stated)
- EC50 [6]: 9.17 µM (active)

SMILES: CN1CCN(c2ccc(N)c(N3CCN(C)CC3)c2)CC1
- IC50 [9]: > 20 µM (inactive)
- IC50 [12]: 33.3 µM (active)

SMILES: CN(C)CCCOc1ccc(-c2cc3nc(NCc4cccnc4)n(C)c(=O)c3s2)cn1
- AC50 [8]: 11.2 µM (active)

SMILES: CSC1CCCCC1(O)CSc1nc2c(cc1C#N)CCCC2 (configuration not stated)
- EC50 [13]: 14.1 µM (active)
- EC50 [14]: 22.3 µM (active)
- EC50 [15]: > 120 µM (not active)
- IC50 [4]: > 80 µM (inactive)

SMILES: CC(C)(C)NC(=S)N/N=C/c1cc(Br)c(O)c(Br)c1
- EC50 [16]: 32.2 µM (active)
- EC50 (HEK293 [17]): 5.75 µM (active)
- IC50 (HEK293 [18]): > 20 µM (inactive)
- EC50 [19]: 2.86 µM (active)
- IC50 (HEK293 [20]): > 20 µM (inactive)
- IC50 (HEK293 [21]): 16.9 µM (inactive)

SMILES: CC/C(NCc1ccc2c(c1)OCO2)=C1/C(=O)NC(=O)N(C2CCCCC2)C1=O
- EC50 [6]: 5.15 µM (active)
